The values below come from US9365540B2, “Benzimidazole derivatives as MCH receptor antagonists” (Takeda Pharmaceutical Company Limited, priority 2012, dated 2016).

Assay [1] concerns the target T1, human MCH receptor 1 (MCHR1) (Homo sapiens, UniProt Q99705).
T1 construct: expressed in transfected cells; host or cells: CHO cell clone 57 (membrane fraction)
The assay is described as follows: human MCH receptor 1 (MCHR1) competitive binding assay with [125I]-MCH(4-19). To be noted: test compound 0.1 μM, human MCHR1-expressing CHO cell membrane fraction, read-out: Binding inhibition rate % (0.1 μM). The procedure, abridged:
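Membranes from CHO cells expressing human MCHR1 incubated with [125I]-MCH(4-19) and test compound in 20 mM Tris-HCl pH 7.5/5 mM EDTA with protease inhibitors, 1 hr at room temperature. Bound radioactivity collected on PEI-treated GF/C filters; % inhibition at 0.1 μM compound, nonspecific binding set with cold MCH(1-19).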

The next assay has as its target T2, human MCHR1 (Homo sapiens, UniProt Q99705).
T2 construct: expressed in transfected cells; host or cells: CHO dhfr- cells, clone #4
In words: MCH receptor 1 antagonistic activity, Ca2+ mobilization assay. To be noted: CHO, test compound 0.1 μM; human MCHR1-expressing CHO cells (clone #4); ligand MCH(4-19) 2 nM; read-out: Inhibitory rate % (0.1 μM). It counts as cell-based. The procedure: Measurement of MCH Receptor 1 Antagonistic Activity of Test Compound Using Ca^2+ Mobilization Assay Using an expression vector plasmid introduced with human MCHR1 gene for expression in animal cells, human MCHR1 gene was introduced into CHO cells (CHO dhfr^−) by Lipofectamine LTX (Invitrogen). The cells were cultured in selection MEMα medium [445 mL of MEMα medium without nucleic acid and added with 5 mL of Penicillin-Streptomycin (Invitrogen) and 50 mL of dialyzed fetal bovine serum]. Colony 24 clones grown in the selection medium, which were human MCHR1 gene-expressing CHO cell candidates, were selected. […] In the following test, this human MCHR1-expressing CHO cell (clone #4) was used. An integrated dispensing function fluorometer (CellLux, PerkinElmer) was used for Ca^2+ mobilization assay. […] The medium was removed, and the cells were washed with phosphate buffered saline (PBS). […] The plate was set on a plate reader. […] The inhibition rates (%) of test compounds (0.1 μM) as antagonist activity measured using human MCHR1-expressing CHO cells (clone #4) are shown in the following Table 3.

T2 sequence (Q99705 whole entry): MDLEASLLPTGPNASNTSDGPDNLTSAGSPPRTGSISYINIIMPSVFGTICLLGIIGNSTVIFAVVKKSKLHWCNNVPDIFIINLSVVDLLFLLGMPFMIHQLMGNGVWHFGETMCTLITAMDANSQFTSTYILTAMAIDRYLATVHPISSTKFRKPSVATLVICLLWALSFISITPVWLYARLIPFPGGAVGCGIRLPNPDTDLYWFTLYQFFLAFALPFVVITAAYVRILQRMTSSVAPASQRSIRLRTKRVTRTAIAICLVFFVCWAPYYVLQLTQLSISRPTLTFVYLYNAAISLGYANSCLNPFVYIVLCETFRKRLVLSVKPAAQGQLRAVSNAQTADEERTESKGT
T1 sequence (Q99705 whole entry): as above

Take `Cn1c(CC2CC2)nc2ccc(-n3ccc(OCc4ccc(Cl)cc4)cc3=O)cc21` [Example 91, 4-((4-Chlorobenzyl)oxy)-1-(2-(cyclopropylmethyl)-1-methyl-1H-benzimidazol-6-yl)pyridin-2(1H)-one]: the figures for the inhibition at 0.1 µM (in assay [1]; on human MCHR1) were 67% and 70%, respectively.
The like results for `CCc1nc2ccc(-n3ccc(OCc4ccc(Cl)cc4)cc3=O)cc2n1C` [Example 102, 4-((4-Chlorobenzyl)oxy)-1-(2-ethyl-1-methyl-1H-benzimidazol-6-yl)pyridin-2(1H)-one] were, in that order, 75% and 97%.
As to `CCCc1nc2ccc(-n3ccc(OCc4ccc(Cl)cc4)cc3=O)cc2n1C` [Example 103, 4-((4-Chlorobenzyl)oxy)-1-(1-methyl-2-propyl-1H-benzimidazol-6-yl)pyridin-2(1H)-one], the inhibition at 0.1 µM in assay [1] came to 78%; on human MCHR1 it was 63%.
As to `CC(=O)c1nc2ccc(-n3ccc(OCc4ccc(Cl)cc4)cc3=O)cc2n1C` [Example 104, 1-(2-Acetyl-1-methyl-1H-benzimidazol-6-yl)-4-((4-chlorobenzyl)oxy)pyridin-2(1H)-one], the inhibition at 0.1 µM in assay [1] turned out to be 60%; at human MCHR1 it was 61%.
For the compound `Cc1nc2ccc(-n3ccc(OCc4ccc(Cl)cc4)cc3=O)cc2n1C` [Example 107, 4-((4-Chlorobenzyl)oxy)-1-(1,2-dimethyl-1H-benzimidazol-6-yl)pyridin-2(1H)-one], the figures for the inhibition at 0.1 µM (in assay [1]; at human MCHR1) were 60% and 101%, respectively.
For `Cn1c(C2CC2)nc2ccc(-n3ccc(OCc4cccs4)cc3=O)cc21` [Example 124, 1-(2-Cyclopropyl-1-methyl-1H-benzimidazol-6-yl)-4-(2-thienylmethoxy)pyridin-2(1H)-one], the inhibition at 0.1 µM came to 58% in assay [1] and 80% on human MCHR1.
Turning to `Cn1c(C2CC2)nc2ccc(-n3ccc(OCc4cccc(Cl)c4)cc3=O)cc21` [Example 127, 4-((3-Chlorobenzyl)oxy)-1-(2-cyclopropyl-1-methyl-1H-benzimidazol-6-yl)pyridin-2(1H)-one], the inhibition at 0.1 µM was 80% in assay [1] and 77% at human MCHR1.
Taken in the same sequence, the figures for `Cc1c(C2CC2)nc2ccc(-n3ccc(OCc4cccc(F)c4)cc3=O)cn12` [Example 130, 1-(2-Cyclopropyl-3-methylimidazo[1,2-a]pyridin-6-yl)-4-((3-fluorobenzyl)oxy)pyridin-2(1H)-one] were 79% and 99%.
`Cc1c(C2CC2)nc2ccc(-n3ccc(OCc4cccs4)cc3=O)cn12` [Example 132, 1-(2-Cyclopropyl-3-methylimidazo[1,2-a]pyridin-6-yl)-4-(2-thienylmethoxy)pyridin-2(1H)-one]: the inhibition at 0.1 µM was determined as 51% in assay [1] and 96% on human MCHR1.
Take `Cc1c(C2CC2)nc2ccc(-n3ccc(OCc4ccsc4)cc3=O)cn12` [Example 133, 1-(2-Cyclopropyl-3-methylimidazo[1,2-a]pyridin-6-yl)-4-(3-thienylmethoxy)pyridin-2(1H)-one]: the inhibition at 0.1 µM is 79% in assay [1] and 98% at human MCHR1.
Taken in the same sequence, the figures for `Cn1c(C2CC2)nc2ccc(-n3ccc(OCc4ccc(F)s4)cc3=O)cc21` [Example 157, 1-(2-Cyclopropyl-1-methyl-1H-benzimidazol-6-yl)-4-((5-fluorothiophen-2-yl)methoxy)pyridin-2(1H)-one] were 71% and 95%.
Take `Cn1c(C2CC2)nc2ccc(-n3ccc(OCc4ccc(C(F)(F)F)s4)cc3=O)cc21` [Example 159, 1-(2-Cyclopropyl-1-methyl-1H-benzimidazol-6-yl)-4-((5-(trifluoromethyl)thiophen-2-yl)methoxy)pyridin-2(1H)-one]: the values for the inhibition at 0.1 µM (in assay [1]; on human MCHR1) were 87% and 107%, respectively.
For the compound `Cc1c(C2CC2)nc2ccc(-n3ccc(OCc4csc(Cl)c4)cc3=O)cn12` [Example 164, 4-((5-Chlorothiophen-3-yl)methoxy)-1-(2-cyclopropyl-3-methylimidazo[1,2-a]pyridin-6-yl)pyridin-2(1H)-one], the inhibition at 0.1 µM in assay [1] is 92%; on human MCHR1, 102%.
`Cc1c(C2CC2)nc2ccc(-n3ccc(OCc4cc(Cl)cs4)cc3=O)cn12` [Example 168, 4-((4-Chlorothiophen-2-yl)methoxy)-1-(2-cyclopropyl-3-methylimidazo[1,2-a]pyridin-6-yl)pyridin-2(1H)-one]: the inhibition at 0.1 µM in assay [1] was found to be 84%; on human MCHR1 it was 103%.
`Cc1c(C2CC2)nc2ccc(-n3ccc(COc4ccc(F)cc4)cc3=O)cn12` [Example 170, 1-(2-Cyclopropyl-3-methylimidazo[1,2-a]pyridin-6-yl)-4-((4-fluorophenoxy)methyl)pyridin-2(1H)-one]: the figures for the inhibition at 0.1 µM (in assay [1]; on human MCHR1) were 23% and 62%, respectively.
As for `Cc1c(C2CC2)nc2ccc(-n3ccc(OCc4csc(Br)c4)cc3=O)cn12` [Example 177, 4-((5-Bromo-3-thienyl)methoxy)-1-(2-cyclopropyl-3-methylimidazo[1,2-a]pyridin-6-yl)pyridin-2(1H)-one], the inhibition at 0.1 µM (in assay [1]; on human MCHR1) was 97% throughout.
Take `Cc1c(C2CC2)nc2ccc(-n3ccc(OCc4ccc(C(F)F)s4)cc3=O)cn12` [Example 178, 1-(2-Cyclopropyl-3-methylimidazo[1,2-a]pyridin-6-yl)-4-((5-(difluoromethyl)-2-thienyl)methoxy)pyridin-2(1H)-one]: the inhibition at 0.1 µM in assay [1] is 74%; on human MCHR1 it was 69%.
Take `Cc1c(C2CC2)nc2ccc(-n3ccc(OCc4csc(C(F)(F)F)n4)cc3=O)cn12` [Example 179, 1-(2-Cyclopropyl-3-methylimidazo[1,2-a]pyridin-6-yl)-4-((2-(trifluoromethyl)-1,3-thiazol-4-yl)methoxy)pyridin-2(1H)-one]: the inhibition at 0.1 µM in assay [1] is 64%; at human MCHR1, 94%.
Turning to `Cc1c(C2CC2)nc2ccc(-n3ccc(OCc4ccc(C(F)(F)F)o4)cc3=O)cn12` [Example 180, 1-(2-Cyclopropyl-3-methylimidazo[1,2-a]pyridin-6-yl)-4-((5-(trifluoromethyl)-2-furyl)methoxy)pyridin-2(1H)-one], the inhibition at 0.1 µM stood at 64% in assay [1] and 99% on human MCHR1.
With `Cc1c(C2CC2)nc2ccc(-n3ccc(NCc4ccc(Cl)s4)cc3=O)cn12` [Example 181, 4-(((5-Chloro-2-thienyl)methyl)amino)-1-(2-cyclopropyl-3-methylimidazo[1,2-a]pyridin-6-yl)pyridin-2(1H)-one], the inhibition at 0.1 µM in assay [1] amounted to 57%; on human MCHR1, 21%.
The like results for `Cc1c(C2CC2)nc2ccc(-n3ccc(OCc4csc(C(F)(F)F)c4)cc3=O)cn12` [Example 183, 1-(2-Cyclopropyl-3-methylimidazo[1,2-a]pyridin-6-yl)-4-((5-(trifluoromethyl)-3-thienyl)methoxy)pyridin-2(1H)-one] were, in that order, 91% and 75%.
Taken in the same sequence, the figures for `Cc1c(C2CC2)nc2ccc(-n3ccc(NCc4ccc(Cl)cc4)cc3=O)cn12` [Example 186, 4-((4-Chlorobenzyl)amino)-1-(2-cyclopropyl-3-methylimidazo[1,2-a]pyridin-6-yl)pyridin-2(1H)-one] were 25% and 74%.
As for `Cc1c(C2CC2)nc2ccc(-n3ccc(OCc4csc(Br)n4)cc3=O)cn12` [Example 189, 4-((2-Bromo-1,3-thiazol-4-yl)methoxy)-1-(2-cyclopropyl-3-methylimidazo[1,2-a]pyridin-6-yl)pyridin-2(1H)-one], the inhibition at 0.1 µM in assay [1] is 86%; on human MCHR1, 100%.
On to `Cc1c(C2CC2)nc2ccc(-n3ccc(OCc4ccc(Br)cc4)cc3=O)cn12` [Example 192, 4-((4-Bromobenzyl)oxy)-1-(2-cyclopropyl-3-methylimidazo[1,2-a]pyridin-6-yl)pyridin-2(1H)-one], for which the inhibition at 0.1 µM in assay [1] is 85%; at human MCHR1 it was 98%.
In the case of `Cc1c(C2CC2)nc2ccc(-n3ccc(OCc4nc(C(F)(F)F)cs4)cc3=O)cn12` [Example 193, 1-(2-Cyclopropyl-3-methylimidazo[1,2-a]pyridin-6-yl)-4-((4-(trifluoromethyl)-1,3-thiazol-2-yl)methoxy)pyridin-2(1H)-one], the inhibition at 0.1 µM was 89% in assay [1] and 99% at human MCHR1.
The like results for `Cc1c(C2CC2)nc2ccc(-n3ccc(OCc4nc(Br)cs4)cc3=O)cn12` [Example 194, 4-((4-Bromo-1,3-thiazol-2-yl)methoxy)-1-(2-cyclopropyl-3-methylimidazo[1,2-a]pyridin-6-yl)pyridin-2(1H)-one] were, in that order, 82% and 100%.
